Laboratory results published in paper PMC9050848, “Carbamoyl-N-aryl-imine-urea: a new framework to obtain a putative leishmanicidal drug-candidate” (RSC Advances, 2020).

Assay: Plasma stability (UPLC-MS/MS recovery)
Type: in vitro ADME
Settings: 37 °C, rat plasma diluted 1:1 with PBS pH 7.4, read-out: Compound recovery after incubation with rat plasma
Method: To investigate the potential plasma instability of the carbamoyl-N-arylimine-urea subunit, designed as a new peptide mimetic framework, compound 10e (LASSBio-1736) was selected to investigate its plasma stability,[21,22] previously to the evaluation of its in vivo leishmanicidal effect. Quantitation of 10e (LASSBio-1736), benzocaine standard (positive control; it means a substrate drug for plasma hydrolysis) and ketoconazole (internal standard) was determined by UPLC-MS/MS, after incubation of the compounds at 0, 30, 60, 120 and 240 min with rat plasma, and measuring the peak areas in three different experiments.
For analysis of plasma stability, 5 μL (250 ng mL^−1) of a concentrated solution of 10e (LASSBio-1736) or the positive control benzocaine (stock concentration = 10 000 ng mL^−1 solubilized in DMSO) was added in 195 μL of rat plasma solution (1 : 1) diluted with PBS (pH 7.4). […] The supernatant (400 μL) were placed in 2 mL vials, and analyzed by UPLC-MS/MS. […]
Detection in single reaction monitoring (SRM) mode was used for determination of the LASSBio-1736 (10e) m/z 419.1 → 205.0, benzocaine m/z 166.1 → 137.9 and ketoconazole (IS) 532.1 → 490.3, with a tolerance of mass deviation of 6 ppm, operating in positive ionization mode. The data were acquired using TraceFinder 3.2. software (Thermo Fisher Scientific, Waltham, USA), and analyzed using GraphPad Prism 5 program.

Question: For `CCOC(=O)c1ccc(N)cc1` [benzocaine, reference compound], which recovery at 4 h, 250 ng/mL is on record?
Answer: 38%
